# Source: patent US9302999B2, “Substituted triazoles as herbicides” (E. I. DU PONT DE NEMOURS AND COMPANY, priority 2012, dated 2016)
# What was measured:
# Barnyardgrass [1] = test: Test C preemergence: barnyardgrass; format: in vivo, Echinochloa crus-galli
# Source text: (§1) Seeds of plant species selected from blackgrass (Alopecurus myosuroides), bromegrass, downy (downy bromegrass, Bromus tectorum), foxtail, green (green foxtail, Setaria viridis), ryegrass, Italian (Italian ryegrass, Lolium multiflorum), winter wheat (Triticum aestivum), wild oat (Avena fatua), galium (catchweed bedstraw, Galium aparine), bermudagrass (Cynodon dactylon), surinam grass (Brachiaria decumbens), cocklebur (common cocklebur, Xanthium strumarium), corn (Zea mays), large crabgrass (Digitaria sanguinalis), woolly cupgrass (Eriochloa villosa), foxtail, giant (giant foxtail, Setaria faberii), goosegrass (Eleusine indica), johnsongrass (Sorghum halepense), kochia (Kochia scoparia), lambsquarters (Chenopodium album), morningglory (Ipomoea coccinea), nightshade (eastern black nightshade, Solanum ptycanthum), nutsedge, yellow (yellow nutsedge, Cyperus esculentus), pigweed (Amaranthus retroflexus), ragweed (common ragweed, Ambrosia elation), soybean (Glycine max), common (oilseed) sunflower (Helianthus annuus), Russian thistle (Salsola kali) and velvetleaf (Abutilon theophrasti) were planted into a blend of loam soil and sand and treated preemergence with test chemicals formulated in a non-phytotoxic solvent mixture which included a surfactant.
# (§2) Treated plants and controls were maintained in a greenhouse for 13 to 15 days, after which time all species were compared to controls and visually evaluated. Plant response ratings, summarized in Table C, are based on a scale of 0 to 100 where 0 is no effect and 100 is complete control. A dash (-) response means no test result.
# [2] = system: lambsquarters (Chenopodium album); test: Test E pre-/postemergence: lambsquarters; format: in vivo; conditions: Preemergence, scale 0 to 100
# Source text: (§3) Seeds of plant species selected from corn (Zea mays), soybean (Glycine max), velvetleaf (Abutilon theophrasti), lambsquarters (Chenopodium album), poinsettia, wild (wild poinsettia, Euphorbia heterophylla), pigweed, palmer (palmer pigweed, Amaranthus palmeri), waterhemp (common waterhemp, Amaranthus rudis), smartweed (ladysthumb smartweed, Polygonum persicaria), surinam grass (Brachiaria decumbens), crabgrass, large (large crabgrass, Digitaria sanguinalis), crabgrass, Brazil (Brazilian crabgrass, Digitaria horizontalis), panicum, fall (fall panicum, Panicum dichotomiflorum), foxtail, giant (giant foxtail, Setaria faberii), foxtail, green (green foxtail, Setaria viridis), goosegrass (Eleusine indica), johnsongrass (Sorghum halepense), ragweed (common ragweed, Ambrosia elation), barnyardgrass (Echinochloa crus-galli), sandbur (southern sandbur, Cenchrus echinatus), arrowleaf sida (Sida rhombifolia), ryegrass, Italian (Italian ryegrass, Lolium multiflorum), dayflower, (VA) (Virginia dayflower, Commelina virginica), field bindweed (Convolvulus arvensis), cocklebur (common cocklebur, Xanthium strumarium), morningglory (Ipomoea coccinea), nightshade (eastern black nightshade, Solanum ptycanthum), kochia (Kochia scoparia), nutsedge, yellow (yellow nutsedge, Cyperus esculentus) and beggarticks (hairy beggarticks, Bidens pilosa) were planted into a silt loam soil and treated preemergence with test chemicals formulated in a non-phytotoxic solvent mixture which included a surfactant. At the same time, plants selected from these crop and weed species were planted in pots containing a growing medium comprising spaghnum peat moss, vermiculite, wetting agent and starter nutrients and treated with postemergence applications of some of the test chemicals formulated in the same manner. Plants ranged in height from 2 to 18 cm for postemergence treatments (1- to 4-leaf stage).
# as §2, with “14” for “13”, “21” for “15”, “E,” for “C,”
# kochia (Kochia scoparia) = test: Test E pre-/postemergence: kochia; format: in vivo; conditions: Preemergence, scale 0 to 100
# Source text: as §3
# as §2, with “14” for “13”, “21” for “15”, “E,” for “C,”
# Barnyardgrass [3] = test: Test C postemergence: barnyardgrass; format: in vivo, Echinochloa crus-galli; conditions: 125 g ai/ha, scale 0 to 100, 0 no effect, 100 complete control
# Source text: as §1
# (§4) At the same time, plants selected from these crop and weed species and also barley (winter barley, Hordeum vulgare), canarygrass (Phalaris minor), chickweed (common chickweed, Stellaria media) windgrass (Apera spica-venti) and deadnettle (henbit deadnettle, Lamium amplexicaule) were planted in pots containing Redi-Earth® planting medium (Scotts Company, 14111 Scottslawn Road, Marysville, Ohio 43041) comprising spaghnum peat moss, vermiculite, wetting agent and starter nutrients and treated with postemergence applications of test chemicals formulated in the same manner. Plants ranged in height from 2 to 18 cm (1- to 4-leaf stage) for postemergence treatments.
# as §2
# Waterhemp = test: Test C postemergence: waterhemp; format: in vivo
# Source text: as §4, §2
# Oilseed Rape = test: Test C postemergence: oilseed rape; format: in vivo, Brassica napus
# Source text: as §1, §4, §2
# [4] = system: arrowleaf sida (Sida rhombifolia); test: Test F pre-/postemergence: arrowleaf sida; format: in vivo
# Source text: Seeds of plant species selected from corn (Zea mays), soybean (Glycine max), velvetleaf (Abutilon theophrasti), lambsquarters (Chenopodium album), poinsettia, wild (wild poinsettia, Euphorbia heterophylla), pigweed, palmer (palmer pigweed, Amaranthus palmeri), waterhemp (common waterhemp, Amaranthus rudis), surinam grass (Brachiaria decumbens), crabgrass, Brazil (Brazilian crabgrass, Digitaria horizontalis), panicum, fall (fall panicum Panicum dichotomiflorum), crabgrass, large (large crabgrass, Digitaria sanguinalis), foxtail, giant (giant foxtail, Setaria faberii), foxtail, green (green foxtail Setaria viridis), goosegrass (Eleusine indica), ragweed (common ragweed, Ambrosia elatior), barnyardgrass (Echinochloa crus-galli), sandbur (southern sandbur, Cenchrus echinatus), arrowleaf sida (Sida rhombifolia), ryegrass, Italian (Italian ryegrass, Lolium multiflorum), dayflower, VA (Virginia (VA) dayflower, Commelina virginica), field bindweed (Convolvulus arvensis), cocklebur (common cocklebur, Xanthium strumarium), morningglory (Ipomoea coccinea), nightshade (eastern black nightshade, Solanum ptycanthum), kochia (Kochia scoparia), nutsedge, yellow (yellow nutsedge, Cyperus esculentus), johnsongrass (Sorghum halepense), smartweed (ladysthumb smartweed, Polygonum persicaria), and beggarticks (hairy beggarticks, Bidens pilosa), were planted into a silt loam soil and treated preemergence with test chemicals formulated in a non-phytotoxic solvent mixture which included a surfactant. At the same time, plants selected from these crop and weed species and also pigweed (Amaranthus retroflexus), waterhemp_RES1 (ALS/Triazine resistant common waterhemp, Amaranthus rudis) and waterhemp_RES2 (ALS/HPPD resistant common waterhemp, Amaranthus rudis) were planted in pots containing a planting medium comprising spaghnum peat moss, vermiculite, wetting agent and starter nutrients treated with postemergence applications of some of the test chemicals formulated in the same manner. Plants ranged in height from 2 to 18 cm for postemergence treatments (1- to 4-leaf stage).
# as §2, with “14” for “13”, “21” for “15”, “E,” for “C,”
# [5] = 31 g ai/ha, scale 0 (no effect) to 100 (complete control)
# [6] = 62 g ai/ha, scale of 0 to 100, 0 is no effect, 100 is complete control
# [7] = 125 g ai/ha, scale 0 to 100, 0 no effect, 100 complete control
# [8] = 31 g ai/ha, scale 0 to 100 (0 no effect, 100 complete control)
# [9] = 62 g ai/ha, scale 0 to 100 (0 no effect, 100 complete control)
# [10] = Postemergence, 8 g ai/ha, scale 0 to 100
# [11] = Postemergence, 16 g ai/ha, scale 0 to 100
# [12] = Postemergence, 31 g ai/ha, scale 0 to 100
# [13] = Postemergence, 62 g ai/ha, scale 0 to 100
# [14] = Preemergence, 16 g ai/ha, scale 0 to 100 (0 no effect, 100 complete control)
# [15] = Preemergence, 31 g ai/ha, scale 0 to 100 (0 no effect, 100 complete control)
# [16] = Preemergence, 62 g ai/ha, scale 0 to 100
# [17] = 31 g ai/ha, scale of 0 to 100, 0 is no effect, 100 is complete control
# [18] = Preemergence, 125 g ai/ha, scale 0 to 100
SMILES,"Plant response rating, Barnyardgrass (Barnyardgrass [1]; [5])","Plant response rating, Barnyardgrass (Barnyardgrass [1]; [6])","Plant response rating, Barnyardgrass (Barnyardgrass [1]; [7])",Plant response rating: Lambsquarters ([2]; 16 g ai/ha),Plant response rating: Lambsquarters ([2]; 31 g ai/ha),Plant response rating: Lambsquarters ([2]; 62 g ai/ha),Plant response rating: Lambsquarters ([2]; 125 g ai/ha),Plant response rating: Kochia (kochia (Kochia scoparia); 16 g ai/ha),Plant response rating: Kochia (kochia (Kochia scoparia); 31 g ai/ha),Plant response rating: Kochia (kochia (Kochia scoparia); 62 g ai/ha),Plant response rating: Kochia (kochia (Kochia scoparia); 125 g ai/ha),"Plant response rating, Barnyardgrass (Barnyardgrass [3])","Plant response rating, Waterhemp (Waterhemp; 250 g ai/ha, scale 0 to 100)","Plant response rating, Oilseed Rape (Oilseed Rape; [7])","Plant response rating, Waterhemp (Waterhemp; [9])","Plant response rating, Arrowleaf Sida [4, 14]","Plant response rating, Arrowleaf Sida [4, 15]","Plant response rating, Arrowleaf Sida [4, 16]",also measured
CCOc1nn(-c2ccc(Br)cc2)nc1Cc1ccnc(C(F)(F)F)c1 [Compound 189],45,98,100,,,,,,,,,,,,,,,,"Plant response rating, Barnyardgrass (Barnyardgrass [1]; 16 g ai/ha, scale 0 (no effect) to 100 (complete control)): 25"
"Cc1nn(-c2ccc(F)cc2)nc1Cc1ccnc(C(F)(F)F)c1 [Compound 16, 4-[[2-(4-fluorophenyl)-5-methyl-2H-1,2,3-triazol-4-yl]methyl]-2-(trifluoromethyl)pyridine]",,,,0,75,98,98,20,70,100,100,,,,,,,,Plant response rating: Lambsquarters ([2]; 8 g ai/ha): 0; Plant response rating: Kochia (kochia (Kochia scoparia); 8 g ai/ha): 0
CCc1nn(-c2ccc(F)cc2)nc1Oc1ccnc(C(F)(F)F)c1 [Compound 166],5,75,98,,,,,,,,,45,98,5,,,,,
Cc1nn(-c2ccc(C(F)(F)F)c(F)c2)nc1Cc1ccnc(C(F)(F)F)c1 [Compound 162],,100,100,,,,,,,,,90,100,90,100,0,0,0,"Plant response rating, Waterhemp (Waterhemp; [8]): 98; Plant response rating, Arrowleaf Sida ([4]; Postemergence, 4 g ai/ha, scale 0 to 100): 10; Plant response rating, Arrowleaf Sida [4, 10]: 25; Plant response rating, Arrowleaf Sida [4, 11]: 30; Plant response rating, Arrowleaf Sida [4, 12]: 35; Plant response rating, Arrowleaf Sida [4, 13]: 60; Plant response rating, Arrowleaf Sida ([4]; Preemergence, 4 g ai/ha, scale 0 to 100, 0 no effect, 100 complete control): 0; Plant response rating, Arrowleaf Sida ([4]; Preemergence, 8 g ai/ha, scale 0 to 100, 0 no effect, 100 complete control): 0; Plant response rating, Barnyardgrass (Barnyardgrass [1]; [17]): 98"
Cc1nn(-c2ccc(F)c(F)c2)nc1Oc1ccnc(C(F)(F)F)c1 [Compound 145],,,,,,,,,,,,,,,,,,,"Plant response rating, Arrowleaf Sida [4, 10]: 30; Plant response rating, Arrowleaf Sida [4, 11]: 40; Plant response rating, Arrowleaf Sida [4, 12]: 50; Plant response rating, Arrowleaf Sida [4, 13]: 60; Plant response rating, Arrowleaf Sida ([4]; Postemergence, 125 g ai/ha, scale 0 to 100): 70"
CCCc1nn(-c2ccc(F)cc2)nc1Cc1ccnc(C(F)(F)F)c1 [Compound 153],,90,100,,,,,,,,,45,98,90,98,5,5,25,"Plant response rating, Waterhemp (Waterhemp; [8]): 98; Plant response rating, Arrowleaf Sida [4, 18]: 25; Plant response rating, Arrowleaf Sida ([4]; Preemergence, 250 g ai/ha, scale 0 to 100): 65; Plant response rating, Barnyardgrass (Barnyardgrass [1]; [17]): 90"
"Cc1nn(-c2ccc(F)cc2)nc1Oc1ccnc(C(F)(F)F)c1 [Compound 129, 4-[[2-(4-fluorophenyl)-5-methyl-2H-1,2,3-triazol-4-yl]oxy]-2-(trifluoromethyl)pyridine]",,,,0,0,75,98,35,50,95,95,,,,,,,,Plant response rating: Lambsquarters ([2]; 8 g ai/ha): 0; Plant response rating: Kochia (kochia (Kochia scoparia); 8 g ai/ha): 35
CCCc1nn(-c2ccc(C(F)(F)F)c(F)c2)nc1Oc1ccnc(C(F)(F)F)c1 [Compound 185],55,98,100,,,,,,,,,70,,50,90,,,,"Plant response rating, Oilseed Rape (Oilseed Rape; 250 g ai/ha, scale 0 to 100 (0 no effect, 100 complete control)): 55"
"Cc1nn(-c2ccc(C(F)(F)F)cc2)nc1Cc1ccnc(C(F)(F)F)c1 [Compound 47, 4-[[5-methyl-2-[4-(trifluoromethyl)phenyl]-2H-1,2,3-triazol-4-yl]methyl]-2-(trifluoromethyl)pyridine]",,,,95,95,98,100,25,35,100,100,,,,,,,,Plant response rating: Lambsquarters ([2]; 250 g ai/ha): 100; Plant response rating: Kochia (kochia (Kochia scoparia); 250 g ai/ha): 100
Fc1ccc(-n2nc(Cc3ccnc(C(F)(F)F)c3)c(OCC(F)(F)F)n2)cc1 [Compound 142],,,,,,,,,,,,,,,,0,30,30,"Plant response rating, Arrowleaf Sida [4, 18]: 35"
